Converted amounts (≈) assume the structure as drawn.
Experiments:
Streptococcus pneumoniae [1] = assay: Antibacterial activity against inducible resistance to macrolide and constitutive resistance to lincosamide Streptococcus pneumoniae 134 GR M by broth microdilution method; type: functional
Streptococcus pneumoniae [2] = assay: Antibacterial activity against constitutive MLS resistance Streptococcus pneumoniae 58 by broth microdilution method; type: functional
HepG2 = assay: Cytotoxicity against human HepG2 cells after 24 hrs by MTS assay; type: cell-based; conditions: HepG2, 24 h
Staphylococcus aureus [3] = assay: Antibacterial activity against efflux-mediated macrolide-resistance Staphylococcus aureus PK1 by broth microdilution method; type: functional
Haemophilus influenzae = assay: Antibacterial activity against Haemophilus influenzae ATCC 49247 by broth microdilution method; type: functional
Staphylococcus aureus [4] = assay: Antibacterial activity against inducible resistance to macrolide, licosamide, and streptogramin Staphylococcus aureus 90265/97 by broth microdilution method; type: functional
Streptococcus pyogenes [5] = assay: Antibacterial activity against inducible resistance to macrolide, licosamide and streptogramin Streptococcus pyogenes 11 by broth microdilution method; type: functional; conditions: read-out: MIC
Streptococcus pyogenes [6] = assay: Antibacterial activity against efflux-mediated macrolide-resistance Streptococcus pyogenes 2 by broth microdilution method; type: functional
Streptococcus pyogenes [7] = assay: Antibacterial activity against constitutive MLS resistance Streptococcus pyogenes 166 GR-Micro by broth microdilution method; type: functional
Streptococcus pneumoniae [8] = assay: Antibacterial activity against efflux-mediated macrolide-resistance Streptococcus pneumoniae Ci137 by broth microdilution method; type: functional; conditions: read-out: MIC
THP-1 = assay: Cytotoxicity against human THP1 cells after 24 hrs by MTS assay; type: cell-based; conditions: THP-1, 24 h

| SMILES | MIC (Streptococcus pneumoniae [1]) | MIC (Streptococcus pneumoniae [2]) | IC50 (HepG2) | MIC (Staphylococcus aureus [3]) | MIC (Haemophilus influenzae) | MIC (Staphylococcus aureus [4]) | MIC (Streptococcus pyogenes [5]) | MIC (Streptococcus pyogenes [6]) | MIC (Streptococcus pyogenes [7]) | MIC (Streptococcus pneumoniae [8]) | IC50 (THP-1) |
| --- | --- | --- | --- | --- | --- | --- | --- | --- | --- | --- | --- |
| CC[C@H]1OC(=O)[C@H](C)[C@@H](O[C@H]2C[C@@](C)(OC)[C@@H](OCCCOCCCc3ccc4c(c3)c(=O)c(C(=O)O)cn4CCOC)[C@H](C)O2)[C@H](C)[C@@H](O[C@@H]2O[C@H](C)C[C@H](N(C)C)[C@H]2O)[C@](C)(O)C[C@@H](C)CN(C)[C@H](C)[C@@H](O)[C@]1(C)O | ≤ 0.125 µg/mL | ≤ 0.125 µg/mL | > 50 µM | ≤ 0.125 µg/mL | 2 µg/mL (≈ 1.83 µM) | ≤ 0.125 µg/mL | ≤ 0.125 µg/mL | ≤ 0.125 µg/mL | ≤ 0.125 µg/mL | ≤ 0.125 µg/mL | > 50 µM |
| CC[C@H]1OC(=O)[C@H](C)[C@@H](O[C@H]2C[C@@](C)(OC)[C@@H](OCCCOCCCCc3ccc4c(c3)c(=O)c(C(=O)O)cn4CC)[C@H](C)O2)[C@H](C)[C@@H](O[C@@H]2O[C@H](C)C[C@H](N(C)C)[C@H]2O)[C@](C)(O)C[C@@H](C)CN(C)[C@H](C)[C@@H](O)[C@]1(C)O | ≤ 0.125 µg/mL | ≤ 0.125 µg/mL | 46 µM | ≤ 0.125 µg/mL | 0.5 µg/mL (≈ 0.464 µM) | ≤ 0.125 µg/mL | ≤ 0.125 µg/mL | ≤ 0.125 µg/mL | ≤ 0.125 µg/mL | ≤ 0.125 µg/mL | 22 µM |
| CC[C@H]1OC(=O)[C@H](C)[C@@H](O[C@H]2C[C@@](C)(OC)[C@@H](OCCCOCCCCCc3ccc4c(c3)c(=O)c(C(=O)O)cn4N(C)C)[C@H](C)O2)[C@H](C)[C@@H](O[C@@H]2O[C@H](C)C[C@H](N(C)C)[C@H]2O)[C@](C)(O)C[C@@H](C)CN(C)[C@H](C)[C@@H](O)[C@]1(C)O | 0.5 µg/mL (≈ 0.451 µM) | ≤ 0.125 µg/mL | 13 µM | ≤ 0.125 µg/mL | 1 µg/mL (≈ 0.903 µM) | ≤ 0.125 µg/mL | ≤ 0.125 µg/mL | ≤ 0.125 µg/mL | 0.25 µg/mL (≈ 0.226 µM) | ≤ 0.125 µg/mL | 8 µM |
| CCCCn1cc(C(=O)O)c(=O)c2cc(CCCOCCCO[C@H]3[C@H](C)O[C@@H](O[C@H]4[C@H](C)[C@@H](O[C@@H]5O[C@H](C)C[C@H](N(C)C)[C@H]5O)[C@](C)(O)C[C@@H](C)CN(C)[C@H](C)[C@@H](O)[C@](C)(O)[C@@H](CC)OC(=O)[C@@H]4C)C[C@@]3(C)OC)ccc21 | ≤ 0.125 µg/mL | ≤ 0.125 µg/mL | 49 µM | ≤ 0.125 µg/mL | 1 µg/mL (≈ 0.915 µM) | ≤ 0.125 µg/mL | ≤ 0.125 µg/mL | ≤ 0.125 µg/mL | ≤ 0.125 µg/mL | ≤ 0.125 µg/mL | 27 µM |
| CC[C@H]1OC(=O)[C@H](C)[C@@H](O[C@H]2C[C@@](C)(OC)[C@@H](OCCCOCCCCc3ccc4c(c3)c(=O)c(C(=O)O)cn4C3CC3)[C@H](C)O2)[C@H](C)[C@@H](O[C@@H]2O[C@H](C)C[C@H](N(C)C)[C@H]2O)[C@](C)(O)C[C@@H](C)CN(C)[C@H](C)[C@@H](O)[C@]1(C)O | ≤ 0.125 µg/mL | ≤ 0.125 µg/mL | 47 µM | ≤ 0.125 µg/mL | 0.5 µg/mL (≈ 0.459 µM) | ≤ 0.125 µg/mL | ≤ 0.125 µg/mL | ≤ 0.125 µg/mL | ≤ 0.125 µg/mL | ≤ 0.125 µg/mL | 20 µM |
| CC[C@H]1OC(=O)[C@H](C)[C@@H](O[C@H]2C[C@@](C)(OC)[C@@H](OCCCOCCCCc3cc4c5c(c3)c(=O)c(C(=O)O)cn5C(C)(C)CO4)[C@H](C)O2)[C@H](C)[C@@H](O[C@@H]2O[C@H](C)C[C@H](N(C)C)[C@H]2O)[C@](C)(O)C[C@@H](C)CN(C)[C@H](C)[C@@H](O)[C@]1(C)O | 0.5 µg/mL (≈ 0.446 µM) | ≤ 0.125 µg/mL | 46 µM | ≤ 0.125 µg/mL | 1 µg/mL (≈ 0.893 µM) | ≤ 0.125 µg/mL | ≤ 0.125 µg/mL | ≤ 0.125 µg/mL | 0.5 µg/mL (≈ 0.446 µM) | ≤ 0.125 µg/mL | 11 µM |
| CC[C@H]1OC(=O)[C@H](C)[C@@H](O[C@H]2C[C@@](C)(OC)[C@@H](OCCCOCCCc3ccc4c(c3)c(=O)c(C(=O)O)cn4C3CC3)[C@H](C)O2)[C@H](C)[C@@H](O[C@@H]2O[C@H](C)C[C@H](N(C)C)[C@H]2O)[C@](C)(O)C[C@@H](C)CN(C)[C@H](C)[C@@H](O)[C@]1(C)O | ≤ 0.125 µg/mL | ≤ 0.125 µg/mL | > 50 µM | ≤ 0.125 µg/mL | 2 µg/mL (≈ 1.86 µM) | ≤ 0.125 µg/mL | ≤ 0.125 µg/mL | ≤ 0.125 µg/mL | ≤ 0.125 µg/mL | ≤ 0.125 µg/mL | 48 µM |
| CCCn1cc(C(=O)O)c(=O)c2cc(CCCOCCCO[C@H]3[C@H](C)O[C@@H](O[C@H]4[C@H](C)[C@@H](O[C@@H]5O[C@H](C)C[C@H](N(C)C)[C@H]5O)[C@](C)(O)C[C@@H](C)CN(C)[C@H](C)[C@@H](O)[C@](C)(O)[C@@H](CC)OC(=O)[C@@H]4C)C[C@@]3(C)OC)ccc21 | ≤ 0.125 µg/mL | ≤ 0.125 µg/mL | 40 µM | ≤ 0.125 µg/mL | 2 µg/mL (≈ 1.85 µM) | 0.25 µg/mL (≈ 0.232 µM) | ≤ 0.125 µg/mL | ≤ 0.125 µg/mL | 0.25 µg/mL (≈ 0.232 µM) | ≤ 0.125 µg/mL | 18 µM |
| CC[C@H]1OC(=O)[C@H](C)[C@@H](O[C@H]2C[C@@](C)(OC)[C@@H](OCCCOCCCc3ccc4c(c3)c(=O)c(C(=O)O)cn4C(C)C)[C@H](C)O2)[C@H](C)[C@@H](O[C@@H]2O[C@H](C)C[C@H](N(C)C)[C@H]2O)[C@](C)(O)C[C@@H](C)CN(C)[C@H](C)[C@@H](O)[C@]1(C)O | < 0.125 µg/mL | ≤ 0.125 µg/mL | > 50 µM | ≤ 0.125 µg/mL | 4 µg/mL (≈ 3.71 µM) | ≤ 0.125 µg/mL | ≤ 0.125 µg/mL | ≤ 0.125 µg/mL | ≤ 0.125 µg/mL | ≤ 0.125 µg/mL | 46 µM |
| CC[C@H]1OC(=O)[C@H](C)[C@@H](O[C@H]2C[C@@](C)(OC)[C@@H](OCCCOCCCc3ccc4c(c3)c(=O)c(C(=O)O)cn4CCN(C)C)[C@H](C)O2)[C@H](C)[C@@H](O[C@@H]2O[C@H](C)C[C@H](N(C)C)[C@H]2O)[C@](C)(O)C[C@@H](C)CN(C)[C@H](C)[C@@H](O)[C@]1(C)O | 0.25 µg/mL (≈ 0.226 µM) | ≤ 0.125 µg/mL | > 50 µM | ≤ 0.125 µg/mL | 4 µg/mL (≈ 3.61 µM) | ≤ 0.125 µg/mL | ≤ 0.125 µg/mL | 0.25 µg/mL (≈ 0.226 µM) | 1 µg/mL (≈ 0.903 µM) | ≤ 0.125 µg/mL | > 50 µM |
| CC[C@H]1OC(=O)[C@H](C)[C@@H](O[C@H]2C[C@@](C)(OC)[C@@H](OCCCOCCCc3cc4c5c(c3)c(=O)c(C(=O)O)cn5C(C)(C)OC4)[C@H](C)O2)[C@H](C)[C@@H](O[C@@H]2O[C@H](C)C[C@H](N(C)C)[C@H]2O)[C@](C)(O)C[C@@H](C)CN(C)[C@H](C)[C@@H](O)[C@]1(C)O | ≤ 0.125 µg/mL | ≤ 0.125 µg/mL | > 50 µM | ≤ 0.125 µg/mL | 1 µg/mL (≈ 0.904 µM) | ≤ 0.125 µg/mL | ≤ 0.125 µg/mL | ≤ 0.125 µg/mL | ≤ 0.125 µg/mL | ≤ 0.125 µg/mL | 40 µM |
| CC[C@H]1OC(=O)[C@H](C)[C@@H](O[C@H]2C[C@@](C)(OC)[C@@H](OCCCOCCCc3ccc4c(c3)c(=O)c(C(=O)O)cn4N(C)C)[C@H](C)O2)[C@H](C)[C@@H](O[C@@H]2O[C@H](C)C[C@H](N(C)C)[C@H]2O)[C@](C)(O)C[C@@H](C)CN(C)[C@H](C)[C@@H](O)[C@]1(C)O | 0.25 µg/mL (≈ 0.232 µM) | ≤ 0.125 µg/mL | > 50 µM | ≤ 0.125 µg/mL | 2 µg/mL (≈ 1.85 µM) | ≤ 0.125 µg/mL | ≤ 0.125 µg/mL | ≤ 0.125 µg/mL | ≤ 0.125 µg/mL | ≤ 0.125 µg/mL | 48 µM |

From ChEMBL document CHEMBL1221321, “Synthesis and properties of macrolones characterized by two ether bonds in the linker” (Bioorg Med Chem, 2010)
